The results in this text go back to patent US20110301159A1, “KINASE INHIBITOR COMPOUNDS” (UNIVERSITY OF SOUTH FLORIDA, priority 2008, published 2011).

Values after ≈ are worked out from the molar mass of the structure shown. Like-named read-outs stand apart in the source and are kept apart here.

Data set [1] deals with Jak2-V617F expressing Human Erythroleukemia (HEL) cells. Kind of data set: Inhibition of Jak2-V617F dependent HEL cell growth (trypan blue viable cell count). Type of data set: cell-based. The conditions noted are these: for inhibition at 25 µM: Homo sapiens, HEL; for inhibition at 25 µM / % Growth Inhibition: 25 uM inhibitor. On the procedure: (§1) Methods: Jak2-V617F expressing Human Erythroleukemia (HEL) cells were plated in 96 well plates at ˜40,000 cells per well and incubated with either vehicle control (0.25% DMSO) or with 25 uM of Jak2 kinase inhibitors. Viable cell numbers were then determined at the times (0, 4, 24, 48 and 72 hours) via trypan blue exclusion and a hemocytometer. Aqueous solubility was determined using a MultiScreen® Solubility Filter Plate (Millipore) (see Quantitative method to determine drug aqueous solubility: optimization and correlation to standard methods; http://www.millipore.com/techpublications/tech1/an1730en00) and a Spectrophotometer.

The test system of data set [2] is Jak2-V617F expressing HEL cells. The experiment in a line: Apoptosis assay (Annexin V/Propidium Iodide FACS). The class given is cell-based, Human. The conditions noted are these: 25 μM, 48 hours. On the procedure: Jak2-V617F expressing HEL cells were exposed to either vehicle control (DMSO), or 25 μM of an inhibitor for 48 hours. The percentage of apoptotic cells was then determined via Annexin V/Propidim Iodide FACS analysis.

Data set [3] can be described thus: Aqueous solubility (MultiScreen Solubility Filter Plate). The class given is physicochemical. The following applies: MultiScreen Solubility Filter Plate (Millipore), kinetic from dmso stock. On the procedure:
as §1

Data set [4] concerns Marrow derived mononuclear cells (polycythemia vera, Jak2-V617F positive). The experiment in a line: Ex vivo colony formation of marrow cells from a polycythemia vera patient. The following applies: 25 or 2.5 μM. Type of data set: cell-based, human. How it is done:
Methods: Marrow derived mononuclear cells were obtained from a person, who has been confirmed to have polycythemia vera and also identified as Jak2-V617F positive. Marrow derived mononuclear cells were washed three times in IMDM media and plated at 4×10^5 cells/mL in 1 mL methylcellulose media (0.9% methylcellulose, 30% heat inactivated FCS, 0.1 mM 2-mercaptoethanol, 0.9% BSA, 0.05% NaHCO3, 2 mM/L glutamine, penicillin, streptomycin, 50 ng/mL SCF, and 20 ng/mL IL-3 (Stem Cell Technologies, Vancouver, BC). Vehicle control (DMSO at 0.25%) or inhibitors were added at the indicated concentrations (25 or 2.5 μM). EPO (1 U/mL) was also added as indicated. The cultures were then incubated at 37° C. and 5% CO2 until assessment of colony formation at day 14. Results were expressed as the average number of colonies from duplicate cultures per 4×10^5 cells.

The subject of data set [5] is Jak2-V617F expressing Human Erythroleukemia (HEL) cells. Kind of data set: Inhibition of Jak2-V617F dependent HEL cell growth (trypan blue viable cell count). Type of data set: cell-based. The conditions noted are these: for IC50: read-out: IC50 for inhibition on Jak2-V617F dependent HEL cells proliferation.
Data set [6] deals with Marrow derived mononuclear cells (Essential Thrombocythemia, Jak2-V617F positive). Kind of data set: Ex vivo Jak2-V617F dependent megakaryocyte colony formation (essential thrombocythemia patient). The class given is cell-based, human. The conditions noted are these: 25 uM, day 14. The text has this:
Marrow derived mononuclear cells were taken from a person, who was confirmed Essential Thrombocythemia and being Jak2-V617F positive.

A further data set addresses T1, recombinant p60c-src (Homo sapiens, UniProt P12931).
T1 construct: purchased Upstate Biotechnology
Kind of data set: c-Src assay (in vitro kinase reaction, anti-Src pY418 Western blot). Type of data set: biochemical. The following applies: 25 uM, 20 minutes, room temperature. How it is done: Approximately 4 μL (12 units) of catalytically active recombinant p60c-src (Upstate Biotechnology) was incubated in 46 μL of in vitro kinase reaction buffer (50 mM HEPES, pH 7.6, 5 mM MnCl2, 5 mM MgCl2, 100 mM NaCl, 0.5 mM DTT), either in the presence of DMSO or 25 uM Z3. The reactions were incubated for 20 minutes at room temperature and then
terminated by addition of SDS-containing buffer. The samples were Western blotted with an anti-Src (pY418) polyclonal antibody (Biosource).
In general terms: Immunoblotting shows a protein as a band on a membrane.

The next data set has as its system HEL cells. Kind of data set: Jak2-V617F-induced hematopoietic disease in NOD-SCID mouse model (HEL cell injection). Type of data set: in vivo, NOD-SCID mice. On the procedure:
Methods: In the experiment, NOD-SCID mice, N=36. were randomized into 6 groups (n=6). Baseline peripheral blood samples and weights were taken at Day 0. At day 7, 2×10^6 HEL cells were injected into each mouse in Groups 2, 3, 4 and 5. […] Then all the mice were euthanized.
In the experiment, the following measurable endpoints were assessed. For peripheral blood, total white blood cell (WBC) counts, the percentage of blast cells, the percentage of nucleated red blood cells (RBC), and Hematocrits were measured. For bone marrow, quantitative cellularity, and Myeloid cell to erythroid cell (M:E) ratio were assessed. Further, toxicity in spleen, brain, kidney, liver, and lung using histological analysis is assessed.
Peripheral blood samples were obtained via weekly submandibular bleeds using a 21 gauge needle. Blood samples were smeared onto glass slides, stained, and dried. Peripheral blast cells on each slide were then tabulated using a pathology light microscope. The average percent of peripheral blast cells for each treatment group was then graphed as a function of time.
At necropsy, femurs from each animal were formalin fixed, de-calcified and then parrafin embedded. Parrafin sections were then made, stained with hematoxylin and eosin and dried. The number of myeloid and erythroid cells were then tabulated by a veterinary pathologist who was blind to the treatment groups. The ratio of myeloid to erythroid cells was then graphed as a function of treatment group. Further, the average number of mature and immature erythroid cells was then graphed as a function of treatment group.
Additionally, at necropsy, animals were weighed one final time and spleens were then removed from each mouse. The wet weight of each spleen was recorded and the spleen weight to body weight ratio was graphed as a function of treatment group.

Take `CCN(CC)Cc1cc(/C=C/c2ccc(O)c(CN(CC)CC)c2)ccc1O` [NB-1, (Z)- and (E)-4,4′-(Ethene-1,2-diyl)bis(2-((diethylamino)methyl)phenol)]: the inhibition at 25 µM in data set [1] was 98%. In data set [2], the “% of Cells in Apoptosis” value stood at 66% and the “suppressing HEL cell growth compared with G6” value is reported as “behaves similarly to G6”. In data set [3], the concentration in solution (solubility) came to 533 µM (≈ 204 µg/mL). Further, the “pathologic cell growth (colony formation at day 14)” value (from here on “pathologic cell growth”) in data set [4] was “reduce pathologic cell growth”. Further, in data set [5] (Homo sapiens, HEL), the IC50 is approximately 4 µM.
For the molecule `CCN(CC)Cc1ccc(/C(C)=C(/C)c2ccc(CN(CC)CC)c(O)c2)cc1O` [NB-3, (Z)- and (E)-5,5′-(But-2-ene-2,3-diyl)bis(2-((diethylamino)methyl)phenol)], the inhibition at 25 µM in data set [1] was found to be 101%. In addition, the solubility in data set [3] was found to be 460 µM (≈ 189 µg/mL).
In the same order, the values of `C/C(=C(/C)c1ccc(CN(C)C)c(O)c1)c1ccc(CN(C)C)c(O)c1` [NB-4, (Z)- and (E)-5,5′-(But-2-ene-2,3-diyl)bis(2-((dimethylamino)methyl)phenol)] are 101% and 478 µM (≈ 169 µg/mL).
As to `CCN(CC)Cc1ccc(/C=C\c2ccc(CN(CC)CC)c(O)c2)cc1O` [NB-5, (Z)- and (E)-5,5′-(Ethene-1,2-diyl)bis(2-((diethylamino)methyl)phenol)], in data set [1], the inhibition at 25 µM stood at 101%. For the same molecule, in data set [3], the concentration in solution (solubility) was 509 µM (≈ 195 µg/mL).
In the same order, the values of `CN(C)Cc1ccc(/C=C\c2ccc(CN(C)C)c(O)c2)cc1O` [NB-6, (Z)- and (E)-5,5′-(Ethene-1,2-diyl)bis(2-((dimethylamino)methyl)phenol)] are approximately 19% and 538 µM (≈ 176 µg/mL).
In the same order, the values of `Oc1cc(/C=C\c2ccc(CN3CCCCC3)c(O)c2)ccc1CN1CCCCC1` [NB-7, (Z)- and (E)-5,5′-(Ethene-1,2-diyl)bis(2-(piperidin-1-ylmethyl)phenol)] are 99% and 495 µM (≈ 201 µg/mL).
On to `CCN(CC)Cc1ccc(/C(C)=C(\C)c2ccc(CN(CC)CC)c(O)c2)cc1O` [NB-8, (Z)- and (E)-5,5′-(But-2-ene-2,3-diyl)bis(2-((diethylamino)methyl)phenol).2HCl], for which the inhibition at 25 µM in data set [1] came out at 100%. Moreover, the solubility in data set [3] amounted to 272 µM.
In the same order, the values of `C/C(=C(\C)c1ccc(CN(C)C)c(O)c1)c1ccc(CN(C)C)c(O)c1` [NB-9, (Z)- and (E)-5,5′-(But-2-ene-2,3-diyl)bis(2-((dimethylamino)methyl)phenol).2HCl] are 101% and 384 µM.
For `CCN(CC)Cc1ccc(/C=C/c2ccc(CN(CC)CC)c(O)c2)cc1O` [NB-10, (Z)- and (E)-5,5′-(Ethene-1,2-diyl)bis(2-((diethylamino)methyl)phenol).2HCl], the inhibition at 25 µM in data set [1] amounted to 100%. The molecule further registered a solubility in data set [3] of 474 µM.
In the same order, the values of `Oc1cc(/C=C/c2ccc(CN3CCCCC3)c(O)c2)ccc1CN1CCCCC1` [NB-12, (Z)- and (E)-5,5′-(Ethene-1,2-diyl)bis(2-(piperidin-1-ylmethyl)phenol)] are 100% and 484 µM (≈ 197 µg/mL).
As for “(Z) and (E)-4,4′-(Hex-3-ene-3,4-diyl)bis(2-((diethylamino)methyl)phenol) [Compound G6]”, in data set [1], the “time required to inhibit Jak2-V617F dependent cell proliferation by 50%” value was approximately 11 h and the “% Growth Inhibition” value turned out to be 100%. In data set [2], the “% of Cells in Apoptosis” value turned out to be 79%. Moreover, the “pathologic cell growth” value in data set [4] is “reduce pathologic cell growth”. Further, in data set [5] (HEL cells), the “Jak2-V617F dependent HEL cell proliferation, dose and time dependence” value was “Inhibits Jak2-V617F Dependent HEL Cell Proliferation in both a dose and time dependent manner”; the IC50 was approximately 4 µM. Also, the “Jak2-V617F dependent megakaryocyte colony formation” value in data set [6] is “blocks Jak2-V617F dependent megakaryocyte colony formation”. Also, the “c-Src tyrosine kinase activity” value at recombinant p60c-src is listed as “no effect on c-Src tyrosine kinase activity”. Also, in the data set with HEL cells (10 mg/kg/day), the “Peripheral blood counts of granulocytes, neutrophils, and eosinophils” value is “all normal”; the bone marrow necrosis is given as 2 of 6; the “histology of brain, kidney, liver, and lung” value is given as “histologically normal”; the splenic necrosis was 3 of 6. Also, in the data set on HEL cells (0.1-10 mg/kg/day), the “percentage of blast cells in peripheral blood” value is given as “reduces the percentage of blast cells in peripheral blood in a dose-dependent manner”. Further, in the data set with HEL cells (mouse, in vivo), the “numbers of mature and immature Erythroid cells in bone marrow” value is listed as “reduced numbers of mature Erythroid cells, not immature Erythroid cells”.
On to “(Z)- and (E)-4,4′-(But-2-ene-2,3-diyl)bis(2-((diethylamino)methyl)phenol) [NB-2]”, for which the “% Growth Inhibition” value in data set [1] (25 µM) was 53%. Besides, in data set [2], the “% of Cells in Apoptosis” value was found to be 28% and the “suppressing HEL cell growth compared with G6” value was “not as effective as G6”. The “pathologic cell growth” value in data set [4] is listed as “reduce pathologic cell growth”. The IC50 in data set [5] (HEL cells) was approximately 9 µM.

What is called inhibition is the change of the read-out against control, counted positive when it falls. Usually solubility stands for the dissolved amount per volume that the medium holds. A low value points to little dissolved substance.
